Assay results as given in US20170009242A1, “CRISPR-Mediated Genome Engineering for Protein Depletion” (Whitehead Institute for Biomedical Research, priority 2015, published 2017).

Tested on: CENP-I-AID-EGFP fusion protein
Assay: Auxin-induced depletion of endogenously tagged CENP-I-AID-EGFP, immunofluorescence microscopy
Assay type: cell-based
Details: osTIR1-expressing DLD-1 cells, interphase cell; IAA 500 μM for 12 hr; immunofluorescence (FIG. 3)
Method: DLD-1 cell lines were cultured as described previously in Dulbecco's Modified Eagle Medium (DMEM) supplemented with 10% fetal bovine serum (FBS), penicillin/streptomycin and 2 mM L-glutamine. Indole-3-acetic acid (IAA) (15148; Sigma) was dissolved in water and added to cells at a concentration of 500 μM for 12 hr. osTIR1-9Myc was cloned into the pBabe-puro vector and introduced into cell lines using retroviral delivery. Stable integrants were selected in puromycin and single clones isolated using single cell sorting. Western Blot analysis using an antibody raised against the Myc tag was used to determine the expression level of TIR1 protein in different clones. Rapidly growing clones with the high levels of osTIR1 expression were selected for further use. 2.5 ug each of pX330-GFP and the donor plasmid were co-transfected into osTIR1-9Myc expressing cells using Lipofectamine 2000 (Invitrogen) and OptiMEM according to the manufacturer's instructions. 24 h after transfection cells, were transferred to a 20 cm dish, and 48 h later cells were selected in […] G418 (Gibco) and 2 ug/ml puromycin to maintain the osTIR1. Colonies were harvested after 2 weeks and FACS sorted to isolate individual cells. […]

In the case of `O=C(O)Cc1c[nH]c2ccccc12` [IAA, Indole-3-acetic acid], the “CENP-I-AID-EGFP fusion protein at kinetochores upon addition of IAA” value is reported as “no longer observed” and the “associated proteins such as CENP-T at kinetochores upon addition of IAA” value is reported as “lost from kinetochores”.
